# Experimental data: patent US12616692B2, “Method of achieving HIV viral remission using long-acting antiretroviral agents” (ViiV Healthcare Company, priority 2020, dated 2026)
# Columns and labels:
# HIV = conditions: cited from earlier work
# [1] = rhesus monkey, in vivo
# [2] = 50 mg/kg CAB LA, 200 mg/kg RPV intramuscularly once a month; cited from earlier work
SMILES,Protein-adjusted concentration required for 90% viral inhibition (HIV) [µg/mL],Time after the last dose over which plasma concentration declined to undetectable levels (remained detected) [1],Plasma concentration relative to protein-adjusted concentration required for 90% viral inhibition [2]
"C[C@H]1CO[C@@H]2Cn3cc(C(=O)NCc4ccc(F)cc4F)c(=O)c(O)c3C(=O)N12 [CAB, cabotegravir]",0.166,4-7 months,well above
"Cc1cc(/C=C/C#N)cc(C)c1Nc1ccnc(Nc2ccc(C#N)cc2)n1 [RPV, rilpivirine]",–,4-7 months,well above
